Results published in patent US11186588B2 (AYUMI PHARMACEUTICAL CORPORATION, priority 2017, dated 2021).

Experiments:
IL-6 production = assay: LPS-induced IL-6 production model test; assay type: in vivo, C57BL/6J mice; details: Mus musculus, 1 h; 10 mg/kg oral, 30 min before LPS 1 mg/kg i.p., serum IL-6 60 min after LPS, mice
Description: In order to evaluate the inhibitory activity of inflammatory cytokine production in the present compounds, LPS-induced IL-6 production model evaluation was carried out. The specific method is described below.
An appropriate amount of each compound was weighed, triturated with an agate mortar, and suspended or dissolved in 1% methyl cellulose solution to prepare 1 mg/mL solution.
C57BL/6J mice (male, Purchaser: Charles River Laboratories Japan, Inc.) were weighted, before divided into normal group, control group and each compound-administered group based on the measured body weight using a random number, wherein each group contained 6 samples. The mice were manually held in hands and forced orally administered the 1% methyl cellulose solution (normal and control group) or each administration solution comprising the compound (each compound-administered group) at a dose of 10 mL/kg into stomach using a feeding needle. After 30 minutes from administration of the 1% methyl cellulose solution or each compound administration solution, the mice were manually held in hands and intraperitoneally administered physiological saline (normal group) or LPS solution (control and each compound-administered group) at a dose of 1 mg/kg. After 60 minutes from administration of the LPS solution, whole blood was collected from the abdominal vena cava of each mouse under isoflurane inhalation anesthesia (available from Mylan Seiyaku Ltd.), and the mice were euthanized. The collected blood was allowed to stand at room temperature for one hour, and then centrifuged at 1,500 G for 10 minutes to collect a serum (supernatant). The collected serum was stored in a deep freezer set at −80° C. until the measurement of IL-6 in the serum. The IL-6 concentration in the serum of each mouse was measured by a commercially available kit (available from R&D systems, Cat No. M6000B), according to the protocol attached thereto.
The IL-6 production inhibition rate (%) was calculated by the following equation using Microsoft EXCEL 2010. IL-6 production inhibition rate (%)=100−{(average value of IL-6 concentration in serum of each compound-administered group)−(average value of IL-6 concentration in serum of normal group))/(average value of IL-6 concentration in serum of control group)−(average value of IL-6 concentration in serum of normal group)}×100

NF-κB = NF-κB reporter gene assay (TNF-α stimulated A549/NF-κB-luc cells); assay type: cell-based; details: Homo sapiens, TNF-α stimulation
In short: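 A549 cells stably carrying an NF-κB luciferase reporter were preincubated with compound for 1 h, then stimulated with TNF-α for 3 h. Luminescence was read with Steady-Glo, and inhibition was scaled between blank and DMSO control wells. IC50 was obtained by curve fitting.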

[1] = biological target: Recombinant BRD4 (44-168) protein (Homo sapiens (Human), UniProt O60885); assay: BRD4-H4KAc4 binding assay (amplified luminescence proximity homogeneous assay, AlphaScreen); details: 10 uM
In short: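 His/FLAG-tagged BRD4 (44-168) and biotinylated tetra-acetylated H4 peptide, each added as 250 nM solutions, incubated with compound 60 min at room temperature in the dark, then AlphaScreen beads 60 min. Emission 520-620 nm at 680 nm excitation, duplicates; % inhibition from blank- and DMSO-corrected signal.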

SMILES: Cc1sc2c(c1C)C(c1ccc(Cl)cc1)=NN(Cc1cccnc1Cl)c1nnc(C)n1-2 [Example 38, 4-(4-chlorophenyl)-6-((2-chloropyridin-3-yl)methyl)-2,3,9-trimethyl-6H-thieno[2,3-e][1,2,4]triazolo[3,4-c][1,2,4]triazepine]
- inhibition in vivo at 10 mg/kg (IL-6 production): 20.2%
- IC50 (NF-κB): 106 nM
- inhibition at 10 µM [1]: 100%

SMILES: Cc1sc2c(c1C)C(c1ccccc1)=NN(Cc1ccccn1)c1nnc(C)n1-2 [Example 31, 2,3,9-trimethyl-4-phenyl-6-(pyridin-2-ylmethyl)-6H-thieno[2,3-e][1,2,4]triazolo[3,4-c][1,2,4]triazepine]
- inhibition in vivo at 10 mg/kg (IL-6 production): 57.5%
- IC50 (NF-κB): 150 nM
- inhibition at 10 µM [1]: 97.8%

SMILES: Cc1sc2c(c1C)C(c1ccc(Cl)cc1)=NN(Cc1ccccn1)c1nnc(C)n1-2 [Example 5, 4-(4-chlorophenyl)-2,3,9-trimethyl-6-(pyridin-2-ylmethyl)-6H-thieno[2,3-e][1,2,4]triazolo[3,4-c][1,2,4]triazepine]
- inhibition in vivo at 10 mg/kg (IL-6 production): 77.5%
- IC50 (NF-κB): 27.5 nM
- inhibition at 10 µM [1]: 100%

SMILES: Cc1sc2c(c1C)C(c1ccc(Cl)cc1)=NN(Cc1cccnc1F)c1nnc(C)n1-2 [Example 25, 4-(4-chlorophenyl)-6-((2-fluoropyridin-3-yl)methyl)-2,3,9-trimethyl-6H-thieno[2,3-e][1,2,4]triazolo[3,4-c][1,2,4]triazepine]
- inhibition in vivo at 10 mg/kg (IL-6 production): 26.3%
- IC50 (NF-κB): 50.3 nM
- inhibition at 10 µM [1]: 100%

SMILES: CC(=O)Nc1ccc(C2=NN(Cc3cccnc3)c3nnc(C)n3-c3sc(C)c(C)c32)cc1 [Example 71, N-(4-(2,3,9-trimethyl-6-(pyridin-3-ylmethyl)-6H-thieno[2,3-e][1,2,4]triazolo[3,4-c][1,2,4]triazepin-4-yl)phenyl)acetamide]
- inhibition in vivo at 10 mg/kg (IL-6 production): 79%
- IC50 (NF-κB): 634 nM
- inhibition at 10 µM [1]: 100%
